In paper PMC7048775, “Single-molecule imaging of PI(4,5)P2 and PTEN in vitro reveals a positive feedback mechanism for PTEN membrane binding” (Communications Biology, 2020):

Legend:
PTEN (PTEN-Halo) [1] = target: T1, PTEN (PTEN-Halo) (Dictyostelium discoideum, UniProt Q8T9S7, R47A); test: phosphate release, BIOMOL Green, absorbance […] nm; type: biochemical; details: 5 nmol substrate in 50 μL, pH 8.0, 2 mM DTT, 21 °C, 2 h
PTEN (PTEN-Halo) [2] = target: PTEN (PTEN-Halo) (Dictyostelium discoideum, UniProt Q8T9S7, K11A/K13A/R14A/R15A); test: phosphate release, BIOMOL Green, absorbance […] nm; type: biochemical; details: 5 nmol substrate in 50 μL, pH 8.0, 2 mM DTT, 21 °C, 2 h
Chain of PTEN (PTEN-Halo) (Dictyostelium discoideum, UniProt Q8T9S7, K11A/K13A/R14A/R15A) (Q8T9S7 whole entry K11A/K13A/R14A/R15A): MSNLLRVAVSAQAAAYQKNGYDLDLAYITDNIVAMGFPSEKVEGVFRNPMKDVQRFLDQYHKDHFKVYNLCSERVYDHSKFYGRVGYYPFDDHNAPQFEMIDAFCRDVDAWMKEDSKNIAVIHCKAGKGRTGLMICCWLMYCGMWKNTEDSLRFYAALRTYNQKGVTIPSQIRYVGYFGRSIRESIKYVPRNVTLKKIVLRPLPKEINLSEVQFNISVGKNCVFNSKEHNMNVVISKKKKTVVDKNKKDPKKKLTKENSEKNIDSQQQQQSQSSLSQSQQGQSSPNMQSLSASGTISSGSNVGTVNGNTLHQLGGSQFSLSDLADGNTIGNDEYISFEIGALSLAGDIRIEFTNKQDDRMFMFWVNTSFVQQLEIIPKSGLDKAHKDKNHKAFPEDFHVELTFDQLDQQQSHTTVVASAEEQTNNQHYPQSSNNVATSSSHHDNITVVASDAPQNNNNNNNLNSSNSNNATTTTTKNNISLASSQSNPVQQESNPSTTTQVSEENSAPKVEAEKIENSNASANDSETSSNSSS

PTEN (PTEN-Halo) [3] = target: T2, PTEN (PTEN-Halo) (Dictyostelium discoideum, UniProt Q8T9S7); test: single-molecule TIRF imaging on supported planar lipid bilayer, dissociation curve; details: 10 mol% PI(4,5)P2 in DOPC bilayer, pH 8.0, 300 mM NaCl, 21 °C; membrane dissociation of protein, two binding states; no affinity constant
T2 sequence (Q8T9S7 1-533): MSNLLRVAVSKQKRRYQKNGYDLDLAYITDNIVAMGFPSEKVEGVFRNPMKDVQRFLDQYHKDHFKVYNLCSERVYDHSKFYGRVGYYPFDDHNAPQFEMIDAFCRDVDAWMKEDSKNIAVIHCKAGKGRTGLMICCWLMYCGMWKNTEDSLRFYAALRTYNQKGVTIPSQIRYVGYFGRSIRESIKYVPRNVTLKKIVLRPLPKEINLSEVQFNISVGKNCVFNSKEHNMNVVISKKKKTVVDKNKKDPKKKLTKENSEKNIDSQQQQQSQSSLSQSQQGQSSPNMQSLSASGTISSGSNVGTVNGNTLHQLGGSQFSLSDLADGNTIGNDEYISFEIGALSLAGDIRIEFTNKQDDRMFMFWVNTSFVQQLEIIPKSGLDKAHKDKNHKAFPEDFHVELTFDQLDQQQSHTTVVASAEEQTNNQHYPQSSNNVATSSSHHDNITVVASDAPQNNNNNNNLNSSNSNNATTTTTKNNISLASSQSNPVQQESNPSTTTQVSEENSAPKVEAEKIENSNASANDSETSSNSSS

PTEN (PTEN-Halo) [4] = target: T1, PTEN (PTEN-Halo); test: as above; type: binding; details: 10 mol% PI(4,5)P2 in DOPC bilayer, pH 8.0, 300 mM NaCl, 21 °C

T1 sequence (Q8T9S7 whole entry R47A): as the sequence (Q8T9S7 whole entry K11A/K13A/R14A/R15A) above, with A11K, A13K, A14R, A15R, R47A counted along it

In the case of CCCCCCCC(=O)OC[C@H](COP(=O)(O)O[C@H]1[C@H](O)[C@@H](OP(=O)(O)O)[C@H](OP(=O)(O)O)[C@@H](OP(=O)(O)O)[C@H]1O)OC(=O)CCCCCCC [diC8-PI(3,4,5)P3], the “phosphate release, BIOMOL Green, absorbance 620 nm” value (PTEN (PTEN-Halo) [1]) was “Phosphatase activities of the mutants were comparable to each other” and the “phosphate release, BIOMOL Green, absorbance 620 nm” value (PTEN (PTEN-Halo) [2]) was “Phosphatase activities of the mutants were comparable to each other”.
CCCCCCCC/C=C\CCCCCCCC(=O)OC[C@H](COP(=O)(O)O[C@@H]1[C@H](O)[C@H](O)[C@@H](OP(=O)(O)O)[C@H](OP(=O)(O)O)[C@H]1O)OC(=O)CCCCCCC/C=C\CCCCCCCC [PI(4,5)P2, 1,2-dioleoyl-sn-glycero-3-phospho-(1′-myo-inositol-4′,5′-bisphosphate)] was tested, and the “average dissociation rate constant k” value (PTEN (PTEN-Halo) [3]) was 15.9 ± 2.8 s⁻¹ and the “average dissociation rate constant k” value (PTEN (PTEN-Halo) [4]) was “both mutants exhibited faster dissociation than wild type”.
